Test results reported in patent publication US9187658B2, “Photopolymerizable inkjet ink, ink cartridge, and inkjet recording device” (Ricoh Company, Ltd., priority 2013, dated 2015).
Like-named read-outs stand apart in the source and are kept apart here.

Tests used:
[1] = test system: female mice; assay: Skin sensitization test, local lymph node assay (LLNA, OECD test guideline 429), BrdU intake by ELISA; conditions: test substance 50.0 w/v % in acetone/olive oil 4:1, 25 μL/auricle once a day for 3 days
Experimental: (§1) According to the skin sensitization test of local lymph node assay (LLNA) specified in OECD test guideline 429, the SI value was measured in the following manner.
(§2) Before treated with the test substances, the positive control or the vehicle control, female mice were acclimated for 8 days including 6-day quarantine. No abnormalities were found in all the mice (used animals) during the quarantine/acclimation period. Based on the body weights measured 2 days before the initiation of sensitization, they were categorized into 2 groups (4 mice/group) by the body weight stratified random sampling method so that the body weight of each individual was within ±20% of the average body weight of all the individuals. Each of the used animals was 8 weeks old to 9 weeks old at the time of the initiation of sensitization. […]
(§3) About 24 hours after the administration of BrdU, the used animals were allowed to undergo euthanasia, and their auricular lymph nodes were sampled. […] Also, the average of the weights of the auricular lymph nodes and the standard error thereof were calculated for each group. […]
(§4) After returning the auricular lymph nodes to room temperature, the auricular lymph nodes were mashed with the gradual addition of physiological saline, and suspended therein. […] The thus-dispensed suspensions were measured for intake of BrdU by the ELISA method. […]

[2] = test system: skin sensitization; conditions: cited from earlier work
[3] = test system: skin sensitization; conditions: vinyl ethers stated as negative; basis not given; cited from earlier work
[4] = test system: female mice; conditions: mouse, in vivo
Experimental: as §1, §2, §3, §4

With `C=C(C)C(=O)OCCOCCOC(=O)C(=C)C` [Compound 2G, Diethylene glycol dimethacrylate] the “SI value (Stimulation Index)” value [1] was 1.1.

For `O=C(c1ccccc1)C1(O)CCCCC1` [Irgacure 184, 1-hydroxycyclohexylphenyl ketone], the “Skin sensitization evaluated in MSDS” value [2] is listed as “no”.

In the case of `Cc1cc(C)c(C(=O)P(=O)(C(=O)c2c(C)cc(C)cc2C)c2ccccc2)c(C)c1` [Irgacure 819, Bis(2,4,6-trimethylbenzoyl)-phenylphosphone oxide], the “Skin sensitization evaluated in MSDS” value ([2]; MSDS) is listed as “yes”.

In the case of `C=COCC` [ethyl vinyl ether], the Skin sensitization [3] is listed as “negative for skin sensitization”.

For `C=COCCCCO` [hydroxybutyl vinyl ether], the Skin sensitization [3] is given as “negative for skin sensitization”.

For `C=COCCOCCOCCOC=C` [triethylene glycol divinyl ether], the Skin sensitization [3] is given as “negative for skin sensitization”.

For “Caprolactone-modified dipentaerythritol hexaacrylate [DPCA60]”, the “SI value (Stimulation Index)” value [4] was 1.0.
